Assays:
[1] = tested on: TRZAWR (Wheat, Winter, cv Riband); assay: Preemergence herbicidal evaluation; type: in vivo, Triticum aestivum; details: rated 4-5 weeks after treatment
Summary of the method: (§1)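 Scores use a 0–9 visual scale covering stand, vigor, malformation, size and chlorosis relative to controls, rated four to five weeks after treatment. Before emergence, soil-planted seeds were sprayed with compound in aqueous acetone at roughly 0.0156–0.500 kg/ha and held in the greenhouse.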

[2] = tested on: ZEAMX (Corn, Field); assay: Preemergence herbicidal evaluation; type: in vivo, Zea mays; details: rated 4-5 weeks after treatment
Summary of the method: as §1

[3] = tested on: SAGPY (Arrowhead (Pygmaea)); assay: Preemergence weed control under flooded paddy conditions; type: in vivo, Sagittaria pygmaea; details: rated 3-4 weeks after treatment
Summary of the method: (§2)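 Greenhouse paddy assay. Acetone/water (50/50 v/v) solutions dosed into flood water, equivalent to about 0.0313 to 0.500 kg/ha active ingredient, over seeds planted 0.5 cm deep in silt loam. Score: 0-9 visual, based on stand, vigor, malformation, size and chlorosis, 3 to 4 weeks after treatment.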

[4] = tested on: CHEAL (Lambsquarters, Common); assay: Postemergence herbicidal evaluation; type: in vivo, Chenopodium album; details: postemergence
Summary of the method: (§3)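 Young plants, roughly two weeks from seeding, receive the active ingredient as a sprayed dispersion (acetone/water 50/50, 0.5% TWEEN 20) at 40 psi. Doses span about 0.0156 to 0.500 kg/ha. A visual score from 0 to 9 compares treated with control plants four to five weeks on.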

[5] = tested on: ECHCG (Barnyardgrass); assay: Postemergence herbicidal evaluation; type: in vivo, Echinochloa crus-galli; details: postemergence
Summary of the method: as §3

[6] = tested on: GALAP (Galium); assay: Preemergence herbicidal evaluation; type: in vivo, Galium aparine; details: rated 4-5 weeks after treatment
Summary of the method: as §1

[7] = tested on: CASOB (Sicklepod); assay: Postemergence herbicidal evaluation; type: in vivo, Cassia obtusifolia; details: postemergence
Summary of the method: as §3

[8] = tested on: ORYSAT (Rice, Tebonnet); assay: Postemergence herbicidal evaluation; type: in vivo, Oryza sativa, (L.) Tebonnet; details: postemergence
Summary of the method: as §3

[9] = tested on: ORYSAT (Rice, Tebonnet); assay: Preemergence herbicidal evaluation; type: in vivo, Oryza sativa, (L.) Tebonnet; details: rated 4-5 weeks after treatment
Summary of the method: as §1

[10] = tested on: MOOVA (Monochoria); assay: Preemergence weed control under flooded paddy conditions; type: in vivo, Monochoria vaginalis; details: rated 3-4 weeks after treatment
Summary of the method: as §2

[11] = tested on: CYPIR (Rice Flatsedge); assay: as above; type: in vivo, Cyperus iria; details: rated 3-4 weeks after treatment
Summary of the method: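 Visual injury scored 0-9 against control three to four weeks post-treatment, greenhouse-grown. Application: acetone/water (50/50) solutions dosed directly into flood water (1.5-3 cm over silt loam, planted top 0.5 cm), roughly 0.0313 to 0.500 kg/ha active ingredient.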

[12] = tested on: GLXMAW (Soybean, Williams); assay: Preemergence herbicidal evaluation; type: in vivo, Glycine max, (L.) Merr. cv Williams; details: rated 4-5 weeks after treatment
Summary of the method: as §1

[13] = tested on: SETVI (Foxtail, Green); assay: Preemergence herbicidal evaluation; type: in vivo, Setaria viridis; details: rated 4-5 weeks after treatment
Summary of the method: as §1

CC(C)N1C(=O)CSC1=Nc1cc(-n2c(=O)cc(C(F)(F)F)n(C)c2=O)c(F)cc1Cl [Compound 164, 3-{4-Chloro-2-fluoro-5-[(3-isopropyl-4-oxo-2-thiazolidinylidene)amino]phenyl}-1-methyl-6-(trifluoromethyl)-2,4(1H,3H)-pyrimidinedione]
7.0: Preemergence herbicidal rating TRZAWR ([1]; 0.2500 kg/ha) | Preemergence herbicidal rating ZEAMX ([2]; 0.1250 kg/ha) | Preemergence herbicidal rating GALAP ([6]; 0.2500 kg/ha) | Preemergence herbicidal rating ORYSAT ([9]; 0.2500 kg/ha) | Preemergence herbicidal rating GLXMAW ([12]; 0.1250 kg/ha) | Preemergence herbicidal rating GLXMAW ([12]; 0.2500 kg/ha) | Preemergence herbicidal rating GLXMAW ([12]; 0.5000 kg/ha)
8.0: Preemergence herbicidal rating ZEAMX ([2]; 0.2500 kg/ha) | herbicidal effect rating, MOOVA ([10]; 0.0313 kg/ha)
2.0: Preemergence herbicidal rating ZEAMX ([2]; 0.0156 kg/ha) | Herbicidal rating ECHCG ([5]; rate 0.0156 kg/ha) | Herbicidal rating CASOB ([7]; rate 0.0156 kg/ha) | Herbicidal rating CASOB ([7]; rate 0.0313 kg/ha) | Preemergence herbicidal rating GLXMAW ([12]; 0.0313 kg/ha)
4.0: Preemergence herbicidal rating TRZAWR ([1]; 0.0625 kg/ha) | herbicidal effect rating, SAGPY ([3]; 0.0313 kg/ha) | herbicidal effect rating, SAGPY ([3]; 0.0625 kg/ha) | Preemergence herbicidal rating GALAP ([6]; 0.0313 kg/ha) | Preemergence herbicidal rating GALAP ([6]; 0.0625 kg/ha) | Herbicidal rating ORYSAT ([8]; rate 0.0313 kg/ha) | Preemergence herbicidal rating SETVI ([13]; 0.0156 kg/ha)
5.0: herbicidal effect rating, SAGPY ([3]; 0.1250 kg/ha) | Herbicidal rating CASOB ([7]; rate 0.0625 kg/ha) | Herbicidal rating ORYSAT ([8]; rate 0.0625 kg/ha) | Herbicidal rating ORYSAT ([8]; rate 0.1250 kg/ha) | Preemergence herbicidal rating ORYSAT ([9]; 0.1250 kg/ha) | herbicidal effect rating, CYPIR ([11]; 0.0625 kg/ha) | Preemergence herbicidal rating GLXMAW ([12]; 0.0625 kg/ha)
6.0: Preemergence herbicidal rating TRZAWR ([1]; 0.1250 kg/ha) | Preemergence herbicidal rating ZEAMX ([2]; 0.0625 kg/ha) | herbicidal effect rating, SAGPY ([3]; 0.2500 kg/ha) | Herbicidal rating CASOB ([7]; rate 0.1250 kg/ha) | herbicidal effect rating, CYPIR ([11]; 0.1250 kg/ha)
1.0: Preemergence herbicidal rating TRZAWR ([1]; 0.0156 kg/ha) | Preemergence herbicidal rating TRZAWR ([1]; 0.0313 kg/ha) | Preemergence herbicidal rating ORYSAT ([9]; 0.0156 kg/ha) | Preemergence herbicidal rating ORYSAT ([9]; 0.0313 kg/ha) | Preemergence herbicidal rating GLXMAW ([12]; 0.0156 kg/ha)
3.0: Preemergence herbicidal rating ZEAMX ([2]; 0.0313 kg/ha) | Herbicidal rating ECHCG ([5]; rate 0.0313 kg/ha) | Herbicidal rating ECHCG ([5]; rate 0.0625 kg/ha) | Herbicidal rating ECHCG ([5]; rate 0.1250 kg/ha) | Preemergence herbicidal rating GALAP ([6]; 0.0156 kg/ha) | Preemergence herbicidal rating ORYSAT ([9]; 0.0625 kg/ha) | herbicidal effect rating, CYPIR ([11]; 0.0313 kg/ha)
9.0: Preemergence herbicidal rating TRZAWR ([1]; 0.5000 kg/ha) | Preemergence herbicidal rating ZEAMX ([2]; 0.5000 kg/ha) | Herbicidal rating CHEAL ([4]; rate 0.0156 kg/ha) | Herbicidal rating CHEAL ([4]; rate 0.0313 kg/ha) | Herbicidal rating CHEAL ([4]; rate 0.0625 kg/ha) | Herbicidal rating CHEAL ([4]; rate 0.1250 kg/ha) | Preemergence herbicidal rating GALAP ([6]; 0.1250 kg/ha) | Preemergence herbicidal rating GALAP ([6]; 0.5000 kg/ha) | Preemergence herbicidal rating ORYSAT ([9]; 0.5000 kg/ha) | herbicidal effect rating, MOOVA ([10]; 0.0625 kg/ha) | herbicidal effect rating, MOOVA ([10]; 0.1250 kg/ha) | herbicidal effect rating, MOOVA ([10]; 0.2500 kg/ha) | herbicidal effect rating, CYPIR ([11]; 0.2500 kg/ha) | Preemergence herbicidal rating SETVI ([13]; 0.0313 kg/ha) | Preemergence herbicidal rating SETVI ([13]; 0.0625 kg/ha) | Preemergence herbicidal rating SETVI ([13]; 0.1250 kg/ha) | Preemergence herbicidal rating SETVI ([13]; 0.2500 kg/ha) | Preemergence herbicidal rating SETVI ([13]; 0.5000 kg/ha)
2.5: Herbicidal rating ORYSAT ([8]; rate 0.0156 kg/ha)

Reference: US20020137929A1, “1 - (3-heterocyclylphenyl) isothiourea, -isourea, -guanidine and -amidine herbicidal agents” (Intellectual Property Department, BASF Aktiengesellschaft, priority 1998, published 2002)
